Values quoted from earlier work as cited in patent US20110280834A1, “METHODS AND COMPOSITIONS FOR CARDIAC TISSUE REGENERATION” (priority 2009, published 2011).

Conditions: rat, in vivo, ip, 70 umol/kg

half-life: 2 h
Compound: O=c1[nH]c(=O)n([C@H]2C[C@H](O)[C@@H](CO)O2)cc1Br [BrdU]
